# Test results: patent publication US11045562B2, “Radiolabelled mGluR2/3 PET ligands” (Janssen Pharmaceutica NV, priority 2015, dated 2021)
# Legend:
# [1] = target: T1, human mGlu3 (Homo sapiens, UniProt Q14832); assay: [3H]-compound A displacement binding, human mGlu3 HEK293 membranes
# T1 construct: expressed in transfected cells; host or cells: HEK293
# Description: (§1) For [^3H]-compound A (a NAM compound, selective for mGlu2/3 (˜20 fold selective for 2 over 3) vs other mGluRs) binding, membranes from human mGlu2 and mGlu3 HEK293 cells, and also rat cortical membranes, were used. After thawing, membranes were homogenized using an Ultra Turrax homogenizer and suspended in ice-cold binding buffer containing 50 mM Tris-HCl (pH 7.4), 10 mM MgCl2, 2 mM CaCl2. Displacement studies were done using 6 nM of radioligand, except for human mGlu3 membranes where 25 nM was used. Assay mixtures were incubated for 60 min at RT in a volume of 0.5 ml containing […] or 75 μg membrane protein of human mGlu2, human mGlu3 or rat cortex, respectively. Non-specific binding was estimated in the presence of […] compound B (a NAM with IC50˜10 nM against hmGlu2 and IC50˜200 nM against hmGlu3). Filtration was performed using Whatman GF/C filter sheets pre-soaked in 0.1% PEI and a Brandell harvester 96.
# (§2) Filters from filters sheets were punched into vials. After the addition of scintillation liquid, radioactivity on the filters was counted in a Liquid Scintillation Analyzer from Perkin Elmer.
# (§3) Radioligand competition binding data were calculated as percentage of total binding measured in the absence of test compound. […] Sigmoid inhibition curves were analyzed using non-linear regression analysis.
# [2] = Ex-vivo biodistribution in Sprague-Dawley rats; conditions: for Uptake, Mean 2 min: 2 min after i.v. injection; for Uptake, Mean 2 min / Uptake, Mean 10 min / Uptake, Mean 30 min / Uptake, Mean 60 min: n=3; for Uptake, Mean 10 min: 10 min after i.v. injection; for Uptake, Mean 30 min: 30 min after i.v. injection; for Uptake, Mean 60 min: 60 min after i.v. injection
# Description: (§4) Sprague-Dawley rats obtained from Harlan (the Netherlands), were housed in groups of four to six per cage until treatment. They were kept at a constant temperature of 21° C. and at a 12-h light/dark cycle, in which lights were switched on at 8:00 a.m. Animals had unrestricted access to food (Teklad Global 16% Protein Rodent Diet, Harlan, Madison, Wis., USA) and water. All animal experiments were performed in compliance with Belgium laws on animal experimentation and after approval by the local animal ethics committee.
# The biodistribution of [^18F]-1 was determined at 2, 10, 30 and 60 min, after injection in Sprague Dawley rats (n=3 per time point. Rats were injected intravenously with 0.7-1.1 MBq via a tail vein and euthanized at the time points indicated above, under isoflurane anesthesia. All tissues were dissected, weighed and counted for radioactivity in a gamma counter.
# [3] = tested on: mGlu2-3 rat cortex; assay: [3H]-compound A displacement binding, rat cortical membranes
# Description: as §1, §2, §3
# [4] = target: T2, human mGlu2 (Homo sapiens, UniProt Q14416); assay: [3H]-compound A displacement binding, human mGlu2 HEK293 membranes
# T2 construct: expressed in transfected cells; host or cells: HEK293
# Description: as §1, §2, §3
# [5] = tested on: mGluR2/3; assay: microPET imaging in rhesus monkey, baseline and compound A pretreatment; type: in vivo, rhesus monkey (Macaca mulatta); conditions: for BPnd: baseline, SRTM, pons reference
# Excerpt: Dynamic 120-min μPET scans with [^18F]-1 were acquired with a Focus 220 μPET scanner on a rhesus monkey (8 y-old female Macaca mulatta, 5.8 kg), that was sedated with ketamine (Ketalar®) and xylazine (Rompun®) via intramuscular (i.m.) injection. During scanning the monkey received repeatedly an additional dose of ketamine/xylazine via i.v. injection. O2 saturation in blood, breathing frequency and heartbeat frequency were monitored during the entire experiment. The head of the animal was placed central in the field of view of the μPET scanner. Scans were acquired in list mode and Fourier rebinned in 27 time frames (4×15 s, 4×60 s, 5×180 s, 8×300 s, 6×600 s). Data were reconstructed using a 3D maximum a posteriori (3D-MAP) iterative reconstruction. TACs of the whole brain were generated using VOIs with PMOD software. Radioactivity concentration in the brain is expressed as SUV as a function of time after tracer injection. In addition, non-displaceable binding potential (BPnd) was determined, using kinetic modeling based on the simplified reference tissue model (SRTM) with the pons as reference region (0-60 min). Scans were started immediately after i.v. injection of 185 MBq of [^18F]-1 via the vena saphena of the right leg. For the pre-treatment study, the cold authentic reference compound A was dissolved in a vehicle containing 20% (2-hydroxypropyl)-β-cyclodextrin and 2 equivalents HCl, filtered through a 0.22-μm membrane filter (Millex-GV, Millipore) prior to injection. Pre-treatment was done by i.v. injection of 2.5 mg/kg of cold authentic reference compound A, 30 min prior to injection of 185 MBq of [^18F]-1. μPET images were compared to a baseline scan, acquired in the non-treated monkey. Blood samples were collected during both baseline and pre-treatment scans at 10, 30 and 60 min p.i. via a catheter in the vena saphena of the left leg and plasma was analysed for radio metabolites according to the same procedure as for rats.
# [6] = tested on: mGluR2/3; assay: microPET scanning in SD rats, baseline and compound A pretreatment; type: in vivo
# Description: Data were acquired in a 128×128×95 matrix with a pixel width of 0.475 mm and a slice thickness of 0.796 mm. During PET imaging, rats were kept under gas anesthesia (2.5% isoflurane in oxygen at a flow rate of 1 l/min), and their body temperature was maintained between 36.5 and 37° C. using a heating pad. PET data were analyzed using Pmod software version 3.2 (Pmod, Zurich Switzerland).
# as §4
# The peak uptake in frontal cortex during the baseline scan was observed around 15 min after tracer injection.
# T1 sequence (Q14832 23-879): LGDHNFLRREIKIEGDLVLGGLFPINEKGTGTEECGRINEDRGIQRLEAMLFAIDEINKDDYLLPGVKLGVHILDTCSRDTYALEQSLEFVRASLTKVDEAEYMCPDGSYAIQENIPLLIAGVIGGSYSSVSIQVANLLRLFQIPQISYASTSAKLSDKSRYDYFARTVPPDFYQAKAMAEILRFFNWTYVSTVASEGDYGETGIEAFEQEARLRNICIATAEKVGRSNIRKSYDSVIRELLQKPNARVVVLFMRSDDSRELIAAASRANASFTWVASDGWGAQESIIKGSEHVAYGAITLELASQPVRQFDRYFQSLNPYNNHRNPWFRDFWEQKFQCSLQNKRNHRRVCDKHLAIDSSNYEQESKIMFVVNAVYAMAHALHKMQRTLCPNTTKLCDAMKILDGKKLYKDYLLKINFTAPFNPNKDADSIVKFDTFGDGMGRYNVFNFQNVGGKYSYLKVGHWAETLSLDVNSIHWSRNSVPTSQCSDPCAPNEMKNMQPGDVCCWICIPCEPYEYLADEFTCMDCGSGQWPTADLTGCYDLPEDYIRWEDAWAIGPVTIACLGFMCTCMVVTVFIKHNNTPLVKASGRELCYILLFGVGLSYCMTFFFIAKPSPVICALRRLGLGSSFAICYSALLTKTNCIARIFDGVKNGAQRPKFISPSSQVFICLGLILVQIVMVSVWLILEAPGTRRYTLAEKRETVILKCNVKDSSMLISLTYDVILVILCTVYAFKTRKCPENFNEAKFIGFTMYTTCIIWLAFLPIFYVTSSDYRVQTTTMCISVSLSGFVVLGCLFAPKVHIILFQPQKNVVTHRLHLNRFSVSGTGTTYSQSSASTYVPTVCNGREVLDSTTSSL
# T2 sequence (Q14416 19-872): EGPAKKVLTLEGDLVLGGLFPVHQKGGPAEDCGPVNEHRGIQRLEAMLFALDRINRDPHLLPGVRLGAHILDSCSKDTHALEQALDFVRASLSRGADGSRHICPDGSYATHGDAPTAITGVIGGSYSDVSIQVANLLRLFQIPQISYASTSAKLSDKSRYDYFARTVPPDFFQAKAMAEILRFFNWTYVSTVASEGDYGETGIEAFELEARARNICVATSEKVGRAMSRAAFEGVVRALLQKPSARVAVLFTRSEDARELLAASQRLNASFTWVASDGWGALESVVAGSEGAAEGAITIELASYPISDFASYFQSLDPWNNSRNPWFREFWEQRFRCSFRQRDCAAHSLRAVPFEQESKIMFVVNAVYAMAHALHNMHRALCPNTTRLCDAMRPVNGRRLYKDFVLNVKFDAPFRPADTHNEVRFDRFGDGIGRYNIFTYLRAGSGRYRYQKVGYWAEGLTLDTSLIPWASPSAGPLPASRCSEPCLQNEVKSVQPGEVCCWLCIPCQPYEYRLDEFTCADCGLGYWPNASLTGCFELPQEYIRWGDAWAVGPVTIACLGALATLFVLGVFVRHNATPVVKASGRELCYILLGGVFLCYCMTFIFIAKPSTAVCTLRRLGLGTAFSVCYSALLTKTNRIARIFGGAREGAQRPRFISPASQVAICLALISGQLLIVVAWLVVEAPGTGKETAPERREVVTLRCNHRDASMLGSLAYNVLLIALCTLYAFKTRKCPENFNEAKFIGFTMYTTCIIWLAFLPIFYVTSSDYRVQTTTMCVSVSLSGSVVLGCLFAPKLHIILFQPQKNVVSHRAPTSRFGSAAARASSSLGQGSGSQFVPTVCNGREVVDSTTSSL
smiles,measurement,setting,value
C[C@H]1CN(c2ccc(C(F)(F)F)c(CF)c2)C(=O)c2c(NC(=O)c3cccnc3N)cnn21 [[^19F]-1],melting point,,150.62 °C
C[C@H]1CN(c2ccc(C(F)(F)F)c(C[18F])c2)C(=O)c2c(NC(=O)c3cccnc3N)cnn21 [compound 1],Eff Curve,[1],96
same,IC50,[1]; 25 nM [3H]-compound A,5.01 nM
same,time of highest uptake,[2]; all brain areas except for the pons,around 10 min
same,"Uptake, Mean 2 min",[2]; blood,0.72 SUV
same,"Uptake, Mean 10 min",[2]; blood,0.50 SUV
same,"Uptake, Mean 30 min",[2]; blood,0.39 SUV
same,"Uptake, Mean 60 min",[2]; blood,0.28 SUV
same,"Uptake, Mean 2 min",[2]; bone,0.61 SUV
same,"Uptake, Mean 10 min",[2]; bone,0.52 SUV
same,"Uptake, Mean 30 min",[2]; bone,0.73 SUV
same,"Uptake, Mean 60 min",[2]; bone,0.67 SUV
same,"Uptake, Mean 2 min",[2]; cerebellum,3.42 SUV
same,"Uptake, Mean 10 min",[2]; cerebellum,3.33 SUV
same,"Uptake, Mean 30 min",[2]; cerebellum,1.90 SUV
same,"Uptake, Mean 60 min",[2]; cerebellum,0.72 SUV
same,"Uptake, Mean 2 min",[2]; cerebrum + cerebellum,3.19 SUV
same,"Uptake, Mean 10 min",[2]; cerebrum + cerebellum,3.45 SUV
same,"Uptake, Mean 30 min",[2]; cerebrum + cerebellum,2.28 SUV
same,"Uptake, Mean 60 min",[2]; cerebrum + cerebellum,0.85 SUV
same,"Uptake, Mean 2 min",[2]; cortex,5.42 SUV
same,"Uptake, Mean 10 min",[2]; cortex,5.98 SUV
same,"Uptake, Mean 30 min",[2]; cortex,3.87 SUV
same,"Uptake, Mean 60 min",[2]; cortex,1.36 SUV
same,brain uptake,"[2]; ex-vivo biodistribution, SD rats",high
same,bone uptake over time,"[2]; ex-vivo biodistribution, hinting for some defluorination",went slightly up over time
same,"uptake in liver, kidneys, pancreas and heart",[2]; followed by a fast washout,high initial uptake
same,"Uptake, Mean 2 min",[2]; heart,4.73 SUV
same,"Uptake, Mean 10 min",[2]; heart,2.16 SUV
same,"Uptake, Mean 30 min",[2]; heart,1.49 SUV
same,"Uptake, Mean 60 min",[2]; heart,1.14 SUV
same,"Uptake, Mean 2 min",[2]; hippocampus,2.49 SUV
same,"Uptake, Mean 10 min",[2]; hippocampus,2.83 SUV
same,"Uptake, Mean 30 min",[2]; hippocampus,1.94 SUV
same,"Uptake, Mean 60 min",[2]; hippocampus,0.80 SUV
same,"Uptake, Mean 2 min",[2]; kidneys,6.59 SUV
same,"Uptake, Mean 10 min",[2]; kidneys,2.76 SUV
same,"Uptake, Mean 30 min",[2]; kidneys,2.24 SUV
same,"Uptake, Mean 60 min",[2]; kidneys,1.87 SUV
same,"Uptake, Mean 2 min",[2]; liver,8.81 SUV
same,"Uptake, Mean 10 min",[2]; liver,5.70 SUV
same,"Uptake, Mean 30 min",[2]; liver,3.90 SUV
same,"Uptake, Mean 60 min",[2]; liver,2.42 SUV
same,"Uptake, Mean 2 min",[2]; lungs,4.70 SUV
same,"Uptake, Mean 10 min",[2]; lungs,2.27 SUV
same,"Uptake, Mean 30 min",[2]; lungs,2.01 SUV
same,"Uptake, Mean 60 min",[2]; lungs,1.77 SUV
same,"Uptake, Mean 2 min",[2]; muscle,0.57 SUV
same,"Uptake, Mean 10 min",[2]; muscle,1.07 SUV
same,"Uptake, Mean 30 min",[2]; muscle,0.87 SUV
same,"Uptake, Mean 60 min",[2]; muscle,0.65 SUV
same,"Uptake, Mean 2 min",[2]; pancreas,6.47 SUV
same,"Uptake, Mean 10 min",[2]; pancreas,3.07 SUV
same,"Uptake, Mean 30 min",[2]; pancreas,2.84 SUV
same,"Uptake, Mean 60 min",[2]; pancreas,2.75 SUV
same,time of peak uptake,[2]; pons,2 min
same,"Uptake, Mean 2 min",[2]; pons,2.65 SUV
same,"Uptake, Mean 10 min",[2]; pons,2.13 SUV
same,"Uptake, Mean 30 min",[2]; pons,1.29 SUV
same,"Uptake, Mean 60 min",[2]; pons,0.56 SUV
same,"Uptake, Mean 2 min",[2]; rest of cerebrum,3.24 SUV
same,"Uptake, Mean 10 min",[2]; rest of cerebrum,3.74 SUV
same,"Uptake, Mean 30 min",[2]; rest of cerebrum,2.45 SUV
same,"Uptake, Mean 60 min",[2]; rest of cerebrum,0.91 SUV
same,"Uptake, Mean 2 min",[2]; spleen,3.71 SUV
same,"Uptake, Mean 10 min",[2]; spleen,1.64 SUV
same,"Uptake, Mean 30 min",[2]; spleen,1.13 SUV
same,"Uptake, Mean 60 min",[2]; spleen,0.87 SUV
same,"Uptake, Mean 2 min",[2]; striatum,3.21 SUV
same,"Uptake, Mean 10 min",[2]; striatum,3.56 SUV
same,"Uptake, Mean 30 min",[2]; striatum,3.03 SUV
same,"Uptake, Mean 60 min",[2]; striatum,1.14 SUV
same,"Uptake, Mean 2 min",[2]; whole cerebrum,3.11 SUV
same,"Uptake, Mean 10 min",[2]; whole cerebrum,3.43 SUV
same,"Uptake, Mean 30 min",[2]; whole cerebrum,2.31 SUV
same,"Uptake, Mean 60 min",[2]; whole cerebrum,0.87 SUV
same,blood uptake,[2]; with a slow washout,low
same,Eff Curve,[3],103
same,pIC50,[3]; 6 nM [3H]-compound A,8.7
same,Eff Curve,[4],85
same,IC50,[4]; 6 nM [3H]-compound A,2.88 nM
same,BPnd,[5]; frontal and prefrontal cortices,high
same,bone uptake,"[5]; microPET scans, rhesus monkey",No bone uptake
same,BPnd,[5]; thalamus,low
same,brain uptake SUV,"[5]; whole brain, baseline scan",~3 SUV
same,time to peak uptake,"[5]; whole brain, baseline scan",3.5 min
same,time of peak uptake after tracer injection,"[6]; frontal cortex, baseline scan",around 15 min
same,mGluR2/3 specificity of brain uptake,[6]; pons uptake in same range as other regions after compound A pretreatment,good mGluR2/3 specificity
